Assay results taken from ChEMBL document CHEMBL1201862, “PubChem BioAssay data set” (2004).
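48-hour exposure; five concentrations; linearly interpolated endpoints. GI50 = concentration required for 50% inhibition of growth.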 The source made the active and inactive calls. Rule as the data show it: active = GI50 up to about 1.1 µM and inactive = higher.

Legend:
Experiment in all cases: growth of human tumour cells (NCI), 48 h
DLD-1 = system: DLD-1
DMS-114 = system: DMS-114
DMS-273 = system: DMS-273
KM-20L2 = system: KM-20L2
LXFL 529 = system: LXFL 529
M19-MEL = system: M19-MEL
RXF 631 = system: RXF 631
SNB-78 = system: SNB-78
XF498 = system: XF498

Measured: GI50

O=C(O)c1ccc([N+](=O)[O-])c2c(=O)c3ccccc3[nH]c12
inactive: DLD-1 > 100 µM | DMS-114 > 100 µM | DMS-273 > 100 µM | KM-20L2 > 100 µM | LXFL 529 > 100 µM | M19-MEL > 100 µM | RXF 631 > 100 µM | SNB-78 > 100 µM

CN(CC(=O)O)S(=O)(=O)c1ccc(F)cc1
inactive: DLD-1 > 100 µM | DMS-273 > 100 µM | KM-20L2 > 100 µM | LXFL 529 > 100 µM | M19-MEL > 100 µM | RXF 631 > 100 µM | XF498 > 100 µM

O/N=C(\c1nc2ccc(Cl)cc2nc1O)C(O)c1ccc(Cl)cc1Cl (configuration not stated)
inactive: DLD-1 > 100 µM | DMS-114 > 100 µM | DMS-273 > 100 µM | KM-20L2 > 100 µM | LXFL 529 > 100 µM | M19-MEL > 100 µM | RXF 631 > 100 µM | SNB-78 > 100 µM | XF498 > 100 µM

C/C(CC(=O)Nc1ccc(Cl)c(Cl)c1)=N/NC(=O)C[n+]1ccccc1
inactive: DMS-114 28.4 µM | DMS-273 40.9 µM | KM-20L2 76.9 µM | LXFL 529 66.7 µM | M19-MEL > 100 µM | SNB-78 > 100 µM | XF498 > 100 µM

CCCCN1C(=O)C2c3[nH]c4ccccc4c3C3CCCCC3C2C1=O.CCCCN1C(=O)C2c3[nH]c4ccccc4c3[C@@H]3CCCCC3C2C1=O (configuration not stated)
inactive: DLD-1 12.9 µM | DMS-114 12.9 µM | DMS-273 10.3 µM | KM-20L2 36.6 µM | LXFL 529 13.6 µM | M19-MEL 37.2 µM | RXF 631 13.7 µM | SNB-78 15 µM | XF498 12.5 µM

COc1cc(C2C(C(=O)Nc3cc(F)c(F)cc3F)=C(C)NC(C)=C2C(=O)Nc2cc(F)c(F)cc2F)ccc1O
inactive: DLD-1 21.5 µM | DMS-114 14 µM | KM-20L2 32 µM | LXFL 529 21.5 µM | M19-MEL 23.4 µM | RXF 631 15 µM | SNB-78 22.5 µM | XF498 4.66 µM

Cc1cc(Cl)ccc1N1C(=O)C(=O)C(c2nc3ccccc3o2)C(=O)C1=O
inactive: DLD-1 32.9 µM | DMS-114 68.9 µM | DMS-273 > 100 µM | KM-20L2 > 100 µM | LXFL 529 71.3 µM | M19-MEL > 100 µM | SNB-78 > 100 µM | XF498 > 100 µM

Cc1ccc2c(C3Cc4ccccc4N3C(=O)/C=C\C(=O)O)c(C)[nH]c2c1 (configuration not stated)
inactive: DLD-1 60.3 µM | DMS-114 31.4 µM | DMS-273 41.7 µM | KM-20L2 > 100 µM | LXFL 529 18.7 µM | M19-MEL 67.5 µM | SNB-78 17.5 µM

CC(C(=O)[O-])S(=O)(=O)O.CCc1c2cc(OC)c(OC)cc2cc2c3cc(OC)c(OC)cc3cc[n+]12
inactive: DLD-1 65 µM | DMS-114 7.83 µM | DMS-273 45.2 µM | KM-20L2 > 100 µM | LXFL 529 5.09 µM | M19-MEL 13.6 µM | SNB-78 33.7 µM | XF498 5.64 µM

COc1ccc(/C=[N+](\[O-])[C@H](COCc2ccccc2)c2ccccc2)cc1
inactive: DLD-1 89.1 µM | DMS-114 > 100 µM | DMS-273 > 100 µM | KM-20L2 > 100 µM | LXFL 529 77.8 µM | RXF 631 > 100 µM | SNB-78 > 100 µM | XF498 > 100 µM

COc1ccc2oc(-c3cc4cc(OC)ccc4o3)cc2c1
inactive: DLD-1 > 100 µM | DMS-273 > 100 µM | KM-20L2 > 100 µM | LXFL 529 > 100 µM | RXF 631 > 100 µM | SNB-78 > 100 µM | XF498 > 100 µM

COCC(O)CN1C(N)=NC(O)C1O (configuration not stated)
inactive: DLD-1 > 100 µM | DMS-114 > 100 µM | DMS-273 > 10 µM | KM-20L2 > 100 µM | LXFL 529 > 100 µM | M19-MEL > 100 µM | SNB-78 > 100 µM

CC(=O)OC1COC(N2C(=O)C(=O)c3cc(Br)c([N+](=O)[O-])cc32)C(OC(C)=O)C1OC(C)=O (configuration not stated)
inactive: DLD-1 34.4 µM | DMS-114 24.7 µM | DMS-273 > 100 µM | KM-20L2 > 100 µM | LXFL 529 50.8 µM | M19-MEL 21.2 µM | RXF 631 48.5 µM | SNB-78 > 100 µM | XF498 35.9 µM

COC(=O)N/N=C(/Cc1occc(=O)c1O)C(=O)Nc1ccc([N+](=O)[O-])cc1[N+](=O)[O-]
inactive: DLD-1 > 100 µM | DMS-114 > 100 µM | DMS-273 > 100 µM | KM-20L2 > 100 µM | LXFL 529 > 100 µM | M19-MEL > 100 µM | SNB-78 > 100 µM | XF498 > 100 µM

COc1ccc(C2ON(c3ccccc3)CC=C2C)cc1 (configuration not stated)
inactive: DLD-1 79.8 µM | DMS-273 64.7 µM | KM-20L2 5.48 µM | LXFL 529 66.8 µM | M19-MEL 43.2 µM | RXF 631 46.6 µM | SNB-78 > 100 µM | XF498 95.7 µM

CCN(CC)c1ccc(/N=N/c2ccc([N+](=O)[O-])cc2OC(=O)/C=C/c2ccccc2)c(OC(=O)/C=C/c2ccccc2)c1
inactive: DLD-1 4.18 µM | DMS-114 3.49 µM | DMS-273 5.5 µM | LXFL 529 21.5 µM | M19-MEL 5 µM | RXF 631 > 100 µM | SNB-78 > 100 µM | XF498 6.82 µM

COc1ccc(-c2cc(=O)c3ccccc3o2)cc1N
inactive: DMS-114 34 µM | DMS-273 41.3 µM | KM-20L2 34.1 µM | LXFL 529 35.7 µM | M19-MEL 86.1 µM | RXF 631 42.3 µM | SNB-78 68.4 µM | XF498 18.2 µM

CCc1ccccc1NC(=O)/C(CC(=O)c1c(C)[n+]([O-])c2ccccc2[n+]1[O-])=N\NS(=O)(=O)c1ccc(C)cc1
inactive: DLD-1 24 µM | DMS-114 12.3 µM | DMS-273 35.4 µM | KM-20L2 > 100 µM | LXFL 529 26.3 µM | M19-MEL 16 µM | RXF 631 > 100 µM | SNB-78 33.7 µM

CC(=O)OC(=O)O/C=C\CCl
inactive: DLD-1 > 100 µM | DMS-114 > 100 µM | DMS-273 62.8 µM | KM-20L2 > 100 µM | LXFL 529 > 100 µM | M19-MEL > 100 µM | RXF 631 > 100 µM | SNB-78 > 100 µM

Cc1ccc(NC(=O)CCc2nnc3s/c(=C\c4cccc([N+](=O)[O-])c4)c(=O)n23)cc1
inactive: DLD-1 > 100 µM | DMS-114 > 100 µM | DMS-273 > 100 µM | KM-20L2 > 100 µM | LXFL 529 > 100 µM | M19-MEL > 100 µM | RXF 631 60 µM | SNB-78 > 100 µM | XF498 > 100 µM

CC(C)[Si](OCC1CC(C[C@H]2CC(C[C@H]3C[C@@H](CO[Si](C(C)C)(C(C)C)C(C)C)OC(C)(C)O3)OC(C)(C)O2)OC(C)(C)O1)(C(C)C)C(C)C (some centres not stated)
inactive: DLD-1 > 100 µM | DMS-114 > 100 µM | DMS-273 > 100 µM | KM-20L2 > 100 µM | M19-MEL > 100 µM | SNB-78 > 100 µM

CC(C)(C)C1CCP(=O)(c2ccccc2)CC1 (configuration not stated)
inactive: DLD-1 > 100 µM | DMS-114 > 100 µM | DMS-273 > 100 µM | KM-20L2 > 100 µM | LXFL 529 > 100 µM | M19-MEL > 100 µM | SNB-78 > 100 µM | XF498 2.1 µM

Cc1ccc(NC(=O)c2cccc([N+](=O)[O-])c2O)c([N+](=O)[O-])c1
inactive: DLD-1 14.9 µM | DMS-114 12.6 µM | DMS-273 11.7 µM | KM-20L2 18.7 µM | LXFL 529 13 µM | M19-MEL 14.3 µM | RXF 631 12.3 µM | SNB-78 19.4 µM | XF498 20.8 µM
